Results on 19 compounds are retold here after PubChem BioAssay AID328 (DTP/NCI, 2004).

Values joined by “and” are separate entries in the source; they are usually repeats but may differ in a detail not shown here. Identical values can stand only once. Inconclusive results and toxic doses are left out.

The test system of this experiment is BDF1 mice, P388 leukemia ip, median survival T/C. The experiment in a line: NCI In Vivo Anticancer Drug Screen. Data for tumor model P388 Leukemia (intraperitoneal) in B6D2F1 (BDF1) mice. The following applies: endpoint: median survival time, higher = longer survival. The gist of the method: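 Transplantable tumour in mice; compound vs vehicle dosing; survival scored; ratio of treated to control reported.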

[1] abbreviates: dose: 6.25 mg/kg/injection, schedule: Q01DX009 (ip), vehicle: saline with Tween-80.
Setting [2] is: dose: 12.5 mg/kg/injection, schedule: Q01DX009 (ip), vehicle: saline with Tween-80.
Setting [3] is: dose: 25.0 mg/kg/injection, schedule: Q01DX009 (ip), vehicle: Klucel (hydroxypropylcellulose) (HPC).
[4] abbreviates: dose: 50.0 mg/kg/injection, schedule: Q01DX009 (ip), vehicle: Klucel (hydroxypropylcellulose) (HPC).
Where [5] appears, read: dose: 100.0 mg/kg/injection, schedule: Q01DX009 (ip), vehicle: saline with Tween-80.
Where [6] appears, read: dose: 12.5 mg/kg/injection, schedule: Q04DX003 (ip), vehicle: saline with Tween-80.
Setting [7] is: dose: 25.0 mg/kg/injection, schedule: Q04DX003 (ip), vehicle: saline with Tween-80.
Setting [8] is: dose: 50.0 mg/kg/injection, schedule: Q01DX009 (ip), vehicle: saline with Tween-80.
The mark [9] stands for this setting: dose: 100.0 mg/kg/injection, schedule: Q01DX001 (ip), vehicle: saline sonified.
Setting [10] is: dose: 200.0 mg/kg/injection, schedule: Q01DX001 (ip), vehicle: saline sonified.
[11] abbreviates: dose: 100.0 mg/kg/injection, schedule: Q01DX009 (ip), vehicle: Klucel (hydroxypropylcellulose) (HPC).
The mark [12] stands for this setting: dose: 200.0 mg/kg/injection, schedule: Q01DX009 (ip), vehicle: Klucel (hydroxypropylcellulose) (HPC).
Where [13] appears, read: dose: 100.0 mg/kg/injection, schedule: Q04DX003 (ip), vehicle: saline with Tween-80.
The mark [14] stands for this setting: dose: 200.0 mg/kg/injection, schedule: Q01DX009 (ip), vehicle: saline with Tween-80.
Where [15] appears, read: dose: 200.0 mg/kg/injection, schedule: Q04DX003 (ip), vehicle: saline with Tween-80.
The mark [16] stands for this setting: dose: 100.0 mg/kg/injection, schedule: Q04DX003 (ip), vehicle: Klucel (hydroxypropylcellulose) (HPC).
[17] abbreviates: dose: 200.0 mg/kg/injection, schedule: Q04DX003 (ip), vehicle: Klucel (hydroxypropylcellulose) (HPC).
The mark [18] stands for this setting: dose: 400.0 mg/kg/injection, schedule: Q01DX009 (ip), vehicle: Klucel (hydroxypropylcellulose) (HPC).
The mark [19] stands for this setting: dose: 400.0 mg/kg/injection, schedule: Q04DX003 (ip), vehicle: Klucel (hydroxypropylcellulose) (HPC).
Where [20] appears, read: dose: 100.0 mg/kg/injection, schedule: Q04DX003 (ip), vehicle: saline.
[21] abbreviates: dose: 400.0 mg/kg/injection, schedule: Q01DX009 (ip), vehicle: saline with Tween-80.

Consider `O=[N+]([O-])c1ccc(N=Nc2c(Cl)cc(O)cc2Cl)cc1`, for which the T/C was 95 % of control (dose: 3.13 mg/kg/injection, schedule: Q01DX009 (ip), vehicle: saline with Tween-80); 115 % of control (dose: 6.25 mg/kg/injection, schedule: Q01DX009 (ip), vehicle: Klucel (hydroxypropylcellulose) (HPC)); 95 % of control under setting [1]; 110 % of control (dose: 12.5 mg/kg/injection, schedule: Q01DX009 (ip), vehicle: Klucel (hydroxypropylcellulose) (HPC)); 95 % of control under setting [2]; 115 % of control under setting [3]. Further, the T/C reads like this: (dose: 35.0 mg/kg/injection, schedule: Q01DX009 (ip), vehicle: Klucel (hydroxypropylcellulose) (HPC)) 94 % of control; under setting [4], 97 % of control; (dose: 75.0 mg/kg/injection, schedule: Q01DX009 (ip), vehicle: Klucel (hydroxypropylcellulose) (HPC)) 118 % of control; under setting [5], 120 % of control; (dose: 100.0 mg/kg/injection, schedule: Q04DX003 (ip), vehicle: saline sonified) 100 % of control; (dose: 200.0 mg/kg/injection, schedule: Q04DX003 (ip), vehicle: saline sonified) 100 % of control. The T/C (dose: 400.0 mg/kg/injection, schedule: Q04DX003 (ip), vehicle: saline sonified) is 100 % of control.
On to `CCC[CH2][Sn]1([CH2]CCC)[N](S(=O)(=O)c2ccc(C)cc2)c2ccccc2[N]1S(=O)(=O)c1ccc(C)cc1`, for which the T/C reads like this: (dose: 1.5 mg/kg/injection, schedule: Q01DX009 (ip), vehicle: Klucel (hydroxypropylcellulose) (HPC)) 91 % of control; (dose: 6.0 mg/kg/injection, schedule: Q01DX009 (ip), vehicle: Klucel (hydroxypropylcellulose) (HPC)) 150 % of control; (dose: 12.0 mg/kg/injection, schedule: Q01DX009 (ip), vehicle: Klucel (hydroxypropylcellulose) (HPC)) 176 % of control.
In the case of `O=[N+]([O-])CC1CCCCC1O` (configuration not stated), the T/C by setting is: (dose: 6.25 mg/kg/injection, schedule: Q04DX003 (ip), vehicle: saline with Tween-80) 100 % of control; under setting [6], 100 % of control; under setting [7], 90 % of control.
As to `O=[N+]([O-])c1ccc(Cc2ccncc2)cc1`, the T/C was 100 % of control (dose: 37.5 mg/kg/injection, schedule: Q01DX009 (ip), vehicle: saline sonified); 95 % of control (dose: 75.0 mg/kg/injection, schedule: Q01DX009 (ip), vehicle: saline sonified); 95 % of control (dose: 150.0 mg/kg/injection, schedule: Q01DX009 (ip), vehicle: saline sonified).
Take `CCCCCNC(=O)Nc1cccc(Cl)c1C`: the T/C by setting is: under setting [1], 116 % of control; under setting [2], 109 % of control; (dose: 25.0 mg/kg/injection, schedule: Q01DX009 (ip), vehicle: saline with Tween-80) 108 % of control; under setting [8], 99 % of control.
Regarding `CC(C)(C)c1cccc(S(=O)(=O)Oc2ccccc2[N+](=O)[O-])c1`, the T/C runs as follows: under setting [9], 100 % of control; under setting [10], 118 % of control; (dose: 400.0 mg/kg/injection, schedule: Q01DX001 (ip), vehicle: saline sonified) 95 % of control.
As for `O=C(O)CCCCCS`, the T/C reads like this: under setting [4], 100 % of control; under setting [11], 102 % of control; under setting [12], 99 % of control.
Consider `CC(=O)C(=O)N1Cc2cc3ccccc3nc2C1`, for which the T/C is 100 % of control (dose: 50.0 mg/kg/injection, schedule: Q01DX001 (ip), vehicle: saline sonified); 100 % of control under setting [9]; 100 % of control under setting [10].
On to `CC(=O)OCC(=O)[C@@]1(O)CC[C@H]2[C@@H]3CCC4=CC(=O)CC[C@]4(C)[C@H]3C(=O)C[C@@]21C`, for which the T/C by setting is: under setting [8], 95 % of control; under setting [5], 112 % of control; under setting [13], 100 % of control; under setting [14], 100 % of control; under setting [15], 86 % of control.
As to `CCCCC(OC(=O)c1ccccc1)c1cc(OC(=O)c2ccccc2)c2c(c1OC(=O)c1ccccc1)CC(C)=C(C)C2` (configuration not stated), the T/C by setting is: under setting [6], 111 % of control; under setting [7], 107 % of control.
As to `CSc1ssc(=Nc2ccc(C)cc2)c1-c1ccccc1`, the T/C by setting is: under setting [16], 105 % of control; under setting [12], 90 % of control; under setting [17], 100 % of control; under setting [18], 95 % of control; under setting [19], 95 % of control.
For the compound `CC1CN1P(=O)(N1CC=CCC1)N1CC1C` (configuration not stated), the T/C by setting is: (dose: 9.38 mg/kg/injection, schedule: Q01DX009 (ip), vehicle: saline) 112 % of control; (dose: 18.7 mg/kg/injection, schedule: Q01DX009 (ip), vehicle: saline) 116 % of control; (dose: 50.0 mg/kg/injection, schedule: Q01DX009 (ip), vehicle: saline) 162 % of control; (dose: 75.0 mg/kg/injection, schedule: Q01DX009 (ip), vehicle: saline) 91 % of control; under setting [20], 107 % of control.
For `C=CC(C)(C)c1cc2cc3c(cc2oc1=O)OC(C(C)(C)OC(C)=O)C3` (configuration not stated), the T/C is, setting by setting: under setting [20], 107 % of control; (dose: 200.0 mg/kg/injection, schedule: Q04DX003 (ip), vehicle: saline) 104 % of control.
As to `N#CC1(NC(Cc2ccccc2)c2ccccc2)CCCCCCCCCCC1` (configuration not stated), the T/C reads like this: under setting [8], 92 % of control; under setting [5], 86 % of control; under setting [14], 104 % of control; under setting [21], 102 % of control.
With `CC(=O)N1C2=CCCC3CCCCC23c2ccccc21` (configuration not stated), the T/C by setting is: under setting [8], 88 % of control and 109 % of control; under setting [5], 102 % of control and 104 % of control; under setting [14], 93 % of control; under setting [21], 112 % of control.
`COc1cccc(CCCC(=O)C(C)S(C)=O)c1` (configuration not stated): the T/C is 112 % of control under setting [8], 101 % of control under setting [5] and 110 % of control under setting [14].
Regarding `NNc1cccc(Cl)n1`, the T/C under setting [8] was 103 % of control.
In the case of `C[C@@H]1C[C@@]2(C)[C@@H](CC[C@@H]3[C@@H]2CC[C@]2(C)[C@@H](OC4CCCCO4)CC[C@@H]32)CC1=O` (some centres not stated), the T/C by setting is: under setting [3], 88 % of control; under setting [4], 92 % of control; under setting [11], 88 % of control and 100 % of control; under setting [16], 86 % of control and 91 % of control; under setting [12], 87 % of control and 100 % of control; under setting [17], 87 % of control and 95 % of control. Also, the T/C is, setting by setting: under setting [18], 105 % of control; under setting [19], 90 % of control and 91 % of control.
Regarding `Cc1cc(=O)[nH]c(N/N=C/c2ccc(N(CCCl)CCCl)cc2)n1`, the T/C reads like this: under setting [13], 95 % of control; under setting [15], 86 % of control; (dose: 400.0 mg/kg/injection, schedule: Q04DX003 (ip), vehicle: saline with Tween-80) 95 % of control.
